Measured values: patent US8367069B2, “Cytotoxic T cell defined EGFR peptide and an optimized derivative peptide” (University of Pittsburgh—of the Commonwealth System of …, priority 2008, dated 2013)

What was measured:
T2 cells = experiment: IFN-γ ELISPOT, CTL recognition of polypeptide pulsed T2 cells; format: cell-based, human; conditions: T2 cells pulsed with the polypeptide; 10 μg/ml at 37° C.
Procedure: In vitro stimulation (IVS) was performed using EGFR853-861 (i.e., SEQ ID NO: 1, wherein the residue at position 2 is threonine) or EGFR853-861L (i.e., SEQ ID NO: 1, wherein the residue at position 2 is leucine) to induce cytotoxic T lymphocytes (CTL) using CD8+PBMC from five HLA-A*0201^+ healthy donors and one head and neck squamous cell carcinoma (SCCHN) patient. The resulting EGFR-specific CTL were tested for EGFR853-861 specificity and HLA class I antigen restriction using polypeptide pulsed T2 cells. CTL generated against EGFR853-861 polypeptide recognized T2 cells pulsed with either EGFR853-861 or EGFR853-861L polypeptide, but not T2 cells alone or T2 cells incubated with the HIV Pol476-484 polypeptide (10 μg/ml at 37° C.) (see FIGS. 6A and 6B). […]
PBMCs were isolated by density centrifugation on Ficoll-Paque™ PLUS (GE Healthcare Bio-Science AB; SE-751 84 Uppsala) and used to prepare mature DCs using methods described in the art. […] The stimulated CD8^+ T cells were analyzed for specificity in IFN-γ ELISPOT and ^51Cr release assays at day 21 and then every 7 days thereafter.
The recognition of APCs pulsed with polypeptide (EGFR853-861 or EGFR853-861L) and head and neck tumor cells was assessed by ELISPOT assays specific for hu-IFN-γ. […]

PCI-30 = experiment: IFN-γ ELISPOT, stimulated CD8+ T cells against PCI-30 head and neck tumor cells; format: cell-based, human; conditions: substance added to CTL plus PCI-30 cells
Procedure: PBMCs were isolated by density centrifugation on Ficoll-Paque™ PLUS (GE Healthcare Bio-Science AB; SE-751 84 Uppsala) and used to prepare mature DCs using methods described in the art. PBMCs were resuspended at 5×10^7/ml in AIM-V medium (Invitrogen) and were incubated for 90 min in 75-cm^2 tissue culture flasks or six-well plates (37° C.; 5% CO2). Non-adherent (T cell-enriched) cells were gently washed out with HBSS and subsequently frozen. The plastic adherent cells were cultured in AIM-V medium supplemented with 1000 units/ml rhGM-CSF and 1000 units/ml rhIL-4. […] The stimulated CD8^+ T cells were analyzed for specificity in IFN-γ ELISPOT and ^51Cr release assays at day 21 and then every 7 days thereafter.
After incubation at 37° C. in 5% CO2 for 40 hours (IFN-γ ELISPOT assays), cells were removed by washings with PBS-0.05% Tween 20 (PBS-T). Captured cytokine was detected at sites of its secretion by incubation for 4 hours with biotinylated mAb anti-hIFN-γ (7-B6-1; Mabtech) at 2 μg/ml in PBS-0.5% BSA. […] Spot numbers and spot sizes were automatically determined with the use of computer-assisted video image analysis.

HLA-A*0201 = HLA-A*0201 (Homo sapiens, UniProt P04439, D140Y/D185E/D98H/E176V/E277Q/G131W/G231S/I119V/I121R/I166T/I218V/L300P/L318F/N151K/N90K/P208A/P217A/Q86G/Q94H/R138H/R169H/T345S); conditions: cited from earlier work
EGFR family = experiment: Cross-reactivity of polypeptide-derived CTL; format: cell-based, human

## HIV Pol476-484: negative control peptide (AGADRQGTV; UniProt P04585 476-484, looked up, fragment)
T2 cells
  recognition of polypeptide pulsed T2 cells by CTL generated against EGFR853-861: not

## panitumumab
PCI-30
  change in IFN-γ spots on addition to CTLs (stimulated with EGFR853-861) and PCI-30 cells: increased

## ITDFGLARL [HER2861-869]
HLA-A*0201
  HLA-A*0201 binding: binds
EGFR family
  cross-reactivity of CTL derived from the polypeptide: demonstrated cross-reactivity
